In paper PMC3976273, “Three Amino Acid Residues Bind Corn Odorants to McinOBP1 in the Polyembryonic Endoparasitoid of Macrocentrus cingulum Brischke” (PLoS ONE, 2014):
Substitutions are numbered along the chain they refer to. Values joined by “and” are separate entries in the source; they are usually repeats but may differ in a detail not shown here. Identical values can stand only once. “Also recorded” adds a separate entry of the source. Like-named read-outs stand apart in the source and are kept apart here.

Experiments:
McinOBP1-wt [1] = biological target: T1, McinOBP1-wt (Macrocentrus cingulum, UniProt X2D9T4); experiment: Competitive fluorescence binding assay, displacement of 1-NPN; settings: for binding to McinOBP1-wt (in words): displacement of 1-NPN
Protocol: (§1) Fluorescence binding assays were recorded on Shimadzu fluorescence spectrophotometer (Shimadzu, Japan) with a 1 cm light path quartz cuvette; both excitation and emission silts widths were 5 nm. The probe was excited at 337 nm and emission spectra were recorded between 350 and 500 nm. […] For determining the bound ligand from the intensity values of fluorescence emission assuming that the proteins were 100% active, with a stoichiometry of 1∶1 (protein:ligand) at saturation. The GraphPad Prism 5 (GraphPad Software, Inc.) was used to estimate the K1–NPN (KD of protein complex/1-NPN) values by nonlinear regression for a unique site of binding. Scatchard plots were used to linearize the curves.

[2] = biological target: T2, McinOBP1-m1 (Val58 to alanine) (Macrocentrus cingulum, UniProt X2D9T4, V58A); experiment: as above
T2 sequence (X2D9T4 21-140 V58A): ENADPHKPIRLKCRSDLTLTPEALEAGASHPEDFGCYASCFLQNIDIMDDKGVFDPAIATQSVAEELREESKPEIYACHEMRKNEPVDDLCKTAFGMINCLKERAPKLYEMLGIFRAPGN
Source text: (§2) The three mutants of McinOBP1, m1 (mutation of amino acid, valine to alanine at 58 position), m2 (mutation of amino acid, leucine to proline at 62 position) and m3 (mutation of amino acid, glutamic to alanine at 130 position), were developed using the kit of Quick-change lightning site-directed mutagenesis (Stratagene, La Jolla, CA, USA). The McinOBP1-wt/pGEM-T Easy construct was used as a template. The primers were designed manually and mutation sites are underlined as listed below.
as §1

[3] = biological target: T3, McinOBP1-m2 (Leu62 to proline) (Macrocentrus cingulum, UniProt X2D9T4, L62P); experiment: as above
T3 sequence (X2D9T4 21-140 L62P): T2 sequence (X2D9T4 21-140 V58A) with A38V, L42P
Source text: as §2, §1

[4] = biological target: T4, McinOBP1-m3 (Glu130 to alanine) (Macrocentrus cingulum, UniProt X2D9T4, E130A); experiment: as above
T4 sequence (X2D9T4 21-140 E130A): T2 sequence (X2D9T4 21-140 V58A) with A38V, E110A
Source text: as §2, §1

McinOBP1-wt [5] = biological target: T1, McinOBP1-wt; experiment: Fluorescence binding of the probe 1-NPN (direct titration); settings: dissociation constant (KD) of 1-NPN, 2 μM protein, 50 mM Tris-HCl pH 7.4
Protocol: as §1

[6] = biological target: T2, McinOBP1-m1 (Val58 to alanine); experiment: as above; settings: 2 μM protein, pH 7.4
Source text: as §2, §1

[7] = biological target: T3, McinOBP1-m2 (Leu62 to proline); experiment: as above; settings: 2 μM protein, pH 7.4
Source text: as §2, §1

[8] = biological target: T4, McinOBP1-m3 (Glu130 to alanine); experiment: as above; settings: 2 μM protein, pH 7.4
Source text: as §2, §1

[9] = McinOBP1-wt, pH 7.4, calculated from IC50 and K1-NPN, read-out: KD (calculated dissociation constant)
[10] = read-out: IC50 (ligand concentration displacing 50% of the fluorescence of the McinOBP1/1-NPN complex), McinOBP1-wt, pH 7.4, 2 μM 1-NPN
[11] = McinOBP1-wt, pH 7.4, 2 μM 1-NPN, read-out: IC50 (given as dash)
[12] = McinOBP1-wt, pH 7.4, 2 μM 1-NPN

T1 sequence (X2D9T4 entry or part of it): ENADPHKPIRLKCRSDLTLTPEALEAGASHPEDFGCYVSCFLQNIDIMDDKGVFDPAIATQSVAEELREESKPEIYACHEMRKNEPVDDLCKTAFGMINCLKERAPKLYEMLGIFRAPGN

Hexenal
Kd (McinOBP1-wt [1]; [9]): 16.4 µM
IC50 (McinOBP1-wt [1]; [10]): 18.9 µM

CC/C=C\CCO [Cis-3-Hexen-1-ol]
IC50 (McinOBP1-wt [1]): 4.61 µM
Kd (McinOBP1-wt [1]): 4 µM
IC50 [2]: 23.6 µM
Kd [2]: 22.1 µM
IC50 [3]: 26.1 µM
Kd [3]: 24.3 µM
IC50 [4]: 29.5 µM
Kd ([4]; KD, McinOBP1-m3): 25.6 µM

Farnsene
Kd (McinOBP1-wt [1]; [9]): 8.93 µM
IC50 (McinOBP1-wt [1]; [10]): 10.3 µM

CC/C=C/CCOC(C)=O [Trans-3-Hexen-1-ol-Acetate]
Kd (McinOBP1-wt [1]; [9]): 20.7 µM
IC50 (McinOBP1-wt [1]; [10]): 23.9 µM

CCC(C)CCCC(C)C (centres unmarked) [2,6 dimethyl octane]
binding to McinOBP1-wt (in words) (McinOBP1-wt [1]; McinOBP1-wt): no binding affinity
binding to McinOBP1-wt (in words) (McinOBP1-wt [1]; McinOBP1-wt, listed as 2, 6 dimethyl octane): did not bind
IC50 (McinOBP1-wt [1]; [11]): > 50 µM

CC1=CCC2CC1C2(C)C (stereo not drawn) [α-pinene]
IC50 (McinOBP1-wt [1]): 17.8 µM
Kd (McinOBP1-wt [1]): 15.5 µM

CC(=O)/C=C/C1=C(C)CCCC1(C)C [β-Ionone]
IC50 (McinOBP1-wt [1]): 10.3 µM
Kd (McinOBP1-wt [1]): 8.97 µM

CCCCCCCCCCC=O [Undecanal]
binding to McinOBP1-wt (in words) (McinOBP1-wt [1]; McinOBP1-wt): did not bind; also recorded: no binding affinity
IC50 (McinOBP1-wt [1]; [11]): > 50 µM

CCCCCCC=O [Heptanal]
IC50 (McinOBP1-wt [1]; [12]): 35.5 µM
Kd (McinOBP1-wt [1]; [9]): 30.9 µM

CCCCCc1ccco1 [2-Pentylfuran]
IC50 (McinOBP1-wt [1]; [12]): 19.1 µM
Kd (McinOBP1-wt [1]; [9]): 16.6 µM

CC(=O)/C=C/C1C(C)=CCCC1(C)C (stereo not drawn) [α-Ionone]
IC50 (McinOBP1-wt [1]): 12.1 µM
Kd (McinOBP1-wt [1]): 9.3 ± 0.38 µM

C=C1CCC2CC1C2(C)C (stereo not drawn) [β-Pinene]
IC50 (McinOBP1-wt [1]): 12.7 µM
Kd (McinOBP1-wt [1]): 10.8 µM

O=Cc1ccccc1 [Benzaldehyde]
IC50 (McinOBP1-wt [1]): 17.9 µM
Kd (McinOBP1-wt [1]): 15.6 µM

c1ccc(Nc2cccc3ccccc23)cc1 [1-NPN, N-phenyl-1-naphthylamine]
Kd (McinOBP1-wt [5]): ~6.6 µM and 6.6 µM
Kd [6]: 14.6 ± 1.07 µM
Kd [7]: 13.7 ± 0.71 µM
Kd [8]: 6.53 ± 0.5 µM

C=C(C)[C@H]1CC=C(C)CC1 [Limonene]
Kd (McinOBP1-wt [1]; [9]): 18.3 µM
IC50 (McinOBP1-wt [1]; [10]): 21.1 µM

CCCCCCCCC=O [Nonanal]
IC50 (McinOBP1-wt [1]; [12]): 19.6 µM
Kd (McinOBP1-wt [1]; [9]): 17 µM

C=CC(=C)CC/C=C(\C)CCC=C(C)C [β-Farnesene]
Kd (McinOBP1-wt [1]; [9]): 24.8 µM
IC50 (McinOBP1-wt [1]; [10]): 28.5 µM

CCCCCC/C=C/C=O [Trans-2-Nonenal]
IC50 (McinOBP1-wt [1]): 3.4 µM
Kd (McinOBP1-wt [1]): 2.96 µM
IC50 [2]: 13.6 µM
Kd [2]: 12.7 µM
IC50 [3]: 50.6 µM
Kd [3]: 47.2 µM
IC50 [4]: 76.7 µM
Kd ([4]; KD, McinOBP1-m3): 66.5 µM

CC/C=C\CCOC(C)=O [cis-3-hexenyl acetate]
Kd (McinOBP1-wt [1]; [9]): 10.3 ± 0.71 µM

CCCCCCCCCC=O [Decanal]
binding to McinOBP1-wt (in words) (McinOBP1-wt [1]; McinOBP1-wt): did not bind
binding to McinOBP1-wt (in words) (McinOBP1-wt [1]; McinOBP1-wt, listed as decanal): no binding affinity
IC50 (McinOBP1-wt [1]; [11]): > 50 µM

C=CC(C)(O)CCC=C(C)C (centres unmarked) [Linalool]
IC50 (McinOBP1-wt [1]): 18.6 µM
Kd (McinOBP1-wt [1]): 16.2 µM

C=C1CC/C=C(\C)CC[C@@H]2[C@@H]1CC2(C)C [Trans-Caryophelle, β- Caryophelle]
Kd (McinOBP1-wt [1]; [9]): 6.53 µM
IC50 (McinOBP1-wt [1]; [10]): 7.51 µM
IC50 ([2]; McinOBP1-m1, read-out: IC50): 70.7 µM
Kd ([2]; McinOBP1-m1, read-out: KD): 66.2 µM
IC50 ([3]; McinOBP1-m2, read-out: IC50): 45 µM
Kd ([3]; McinOBP1-m2, read-out: KD): 42 µM
Kd ([4]; McinOBP1-m3, listed as trans-caryophelle, read-out: KD): 41.4 ± 5.38 µM
IC50 ([4]; McinOBP1-m3, read-out: IC50): 47.8 µM
Kd ([4]; McinOBP1-m3, read-out: KD): 41.4 µM

CCCCC/C=C/C=O [Trans-2-Octenal]
IC50 (McinOBP1-wt [1]; [12]): 15.7 µM
Kd (McinOBP1-wt [1]; [9]): 13.6 µM
